Results as given in ChEMBL document CHEMBL3603744, “Structure activity relationship of C-2 ether substituted 1,5-naphthyridine analogs of oxabicyclooctane-linked novel bacterial topoisomerase inhibitors as broad-spectrum antibacterial agents (Part-5)” (Bioorg Med Chem Lett, 2015).
Converted amounts (≈) assume the structure as drawn. The source made the active and inactive calls. How the calls were made is not given here.

Tests used:
[1] = tested on: Enterococcus faecium; assay: Antimicrobial activity against vancomycin-resistant Enterococcus faecium VanA by micro broth dilution or agar based method; type: functional
[2] = tested on: Streptococcus pneumoniae; assay: Antimicrobial activity against Streptococcus pneumoniae IID553 by micro broth dilution or agar based method; type: functional
[3] = tested on: Staphylococcus aureus; assay: Antimicrobial activity against Staphylococcus aureus Smith by micro broth dilution or agar based method; type: functional
[4] = tested on: Escherichia coli; assay: Antimicrobial activity against Escherichia coli ATCC 25922 by micro broth dilution or agar based method; type: functional
[5] = tested on: Pseudomonas aeruginosa; assay: Antimicrobial activity against Pseudomonas aeruginosa PAO1 by micro broth dilution or agar based method; type: functional
[6] = tested on: Acinetobacter baumannii; assay: Antimicrobial activity against Acinetobacter baumannii IID876 by micro broth dilution or agar based method; type: functional
[7] = tested on: Staphylococcus aureus; assay: Antimicrobial activity against methicillin-resistant Staphylococcus aureus OIT971 by micro broth dilution or agar based method; type: functional, organism-based

Structure (SMILES) | MIC [1] [µg/mL] | MIC [2] [µg/mL] | MIC [3] [µg/mL] | MIC [4] [µg/mL] | MIC [5] [µg/mL] | MIC [6] [µg/mL] | growth inhibition (GI) [7]
O=C1COc2ccc(CNC34CCC([C@@H](O)Cc5c(F)cnc6ccc(OCCCO)nc56)(CC3)OC4)nc2N1 [listing 1 of 2 here] | 4 (≈ 7.23 µM) | 0.5 (≈ 0.903 µM) | 0.125 (≈ 0.226 µM) | 16 (≈ 28.9 µM) | 16 (≈ 28.9 µM) | 4 (≈ 7.23 µM) | –
CC(C)(O)CCOc1ccc2ncc(F)c(CCC34CCC(NCc5ccc6c(n5)NC(=O)CO6)(CC3)CO4)c2n1 | 16 (≈ 28.3 µM) | 4 (≈ 7.07 µM) | 1 (≈ 1.77 µM) | 16 (≈ 28.3 µM) | 16 (≈ 28.3 µM) | 16 (≈ 28.3 µM) | Active
COC(=O)CCCCOc1ccc2ncc(F)c(CCC34CCC(NCc5ccc6c(n5)NC(=O)CO6)(CC3)CO4)c2n1 | 2 (≈ 3.37 µM) | 0.5 (≈ 0.842 µM) | 0.063 (≈ 0.106 µM) | 4 (≈ 6.74 µM) | 4 (≈ 6.74 µM) | 4 (≈ 6.74 µM) | Active
N[C@H]1COC[C@@H]1Oc1ccc2ncc(F)c(CCC34CCC(NCc5ccc6c(n5)NC(=O)CO6)(CC3)CO4)c2n1 | 16 (≈ 28.3 µM) | 4 (≈ 7.08 µM) | 0.25 (≈ 0.443 µM) | 8 (≈ 14.2 µM) | 32 (≈ 56.7 µM) | 2 (≈ 3.54 µM) | Active
O=C1COc2ccc(CNC34CCC(CCc5c(F)cnc6ccc(OCCCCCO)nc56)(CC3)OC4)nc2N1 [listing 1 of 2 here] | 4 (≈ 7.07 µM) | 1 (≈ 1.77 µM) | 0.063 (≈ 0.111 µM) | 8 (≈ 14.1 µM) | 8 (≈ 14.1 µM) | 8 (≈ 14.1 µM) | –
O=C1COc2ccc(CNC34CCC(CCc5c(F)cnc6ccc(OCCO)nc56)(CC3)OC4)nc2N1 | – | – | – | – | – | – | Active
N[C@@H]1COC[C@H]1Oc1ccc2ncc(F)c(CCC34CCC(NCc5ccc6c(n5)NC(=O)CO6)(CC3)CO4)c2n1 | 8 (≈ 14.2 µM) | 0.5 (≈ 0.886 µM) | 0.125 (≈ 0.221 µM) | 4 (≈ 7.08 µM) | 16 (≈ 28.3 µM) | 1 (≈ 1.77 µM) | Active
COC(=O)[C@H]1C[C@@H]1COc1ccc2ncc(F)c(CCC34CCC(NCc5ccc6c(n5)NC(=O)CO6)(CC3)CO4)c2n1 (relative stereo) | 4 (≈ 6.76 µM) | 0.25 (≈ 0.423 µM) | 0.031 (≈ 0.0524 µM) | 16 (≈ 27 µM) | 16 (≈ 27 µM) | 8 (≈ 13.5 µM) | Active
O=C1COc2ccc(CNC34CCC(CCc5c(F)cnc6ccc(OCCCCO)nc56)(CC3)OC4)nc2N1 | 2 (≈ 3.63 µM) | 0.5 (≈ 0.906 µM) | 0.031 (≈ 0.0562 µM) | 8 (≈ 14.5 µM) | 16 (≈ 29 µM) | 2 (≈ 3.63 µM) | Active
O=C1COc2ccc(CNC34CCC(CCc5c(F)cnc6ccc(OCCCO)nc56)(CC3)OC4)nc2N1 | – | – | – | – | – | – | Active
O=C1COc2ccc(CNC34CCC(CCc5c(F)cnc6ccc(OCc7cc(=O)c(O)c[nH]7)nc56)(CC3)OC4)nc2N1 | 64 (≈ 106 µM) | 32 (≈ 53.1 µM) | 8 (≈ 13.3 µM) | 16 (≈ 26.6 µM) | 16 (≈ 26.6 µM) | 16 (≈ 26.6 µM) | Active
O=C1COc2ccc(CNC34CCC(CCc5c(F)cnc6ccc(OC7CCC7)nc56)(CC3)OC4)nc2N1 | 8 (≈ 15 µM) | 2 (≈ 3.75 µM) | 0.125 (≈ 0.234 µM) | 64 (≈ 120 µM) | 64 (≈ 120 µM) | 8 (≈ 15 µM) | Active
CCOC(=O)COc1ccc2ncc(F)c(CCC34CCC(NCc5ccc6c(n5)NC(=O)CO6)(CC3)CO4)c2n1 | 16 (≈ 28.3 µM) | 16 (≈ 28.3 µM) | 0.25 (≈ 0.442 µM) | 16 (≈ 28.3 µM) | 16 (≈ 28.3 µM) | 8 (≈ 14.1 µM) | Active
COC(=O)[C@@H]1C[C@@H]1COc1ccc2ncc(F)c(CCC34CCC(NCc5ccc6c(n5)NC(=O)CO6)(CC3)CO4)c2n1 (relative stereo) | – | – | – | – | – | – | Active
O=C1COc2ccc(CNC34CCC([C@@H](O)Cc5c(F)cnc6ccc(OCCCO)nc56)(CC3)OC4)nc2N1 [listing 2 of 2 here] | – | – | – | – | – | – | Active
N[C@@H]1CO[C@H]1COc1ccc2ncc(F)c(CCC34CCC(NCc5ccc6c(n5)NC(=O)CO6)(CC3)CO4)c2n1 | 8 (≈ 14.2 µM) | 2 (≈ 3.54 µM) | 0.25 (≈ 0.443 µM) | 4 (≈ 7.08 µM) | 16 (≈ 28.3 µM) | 1 (≈ 1.77 µM) | Active
CCOC(=O)C(F)(F)CCOc1ccc2ncc(F)c(CCC34CCC(NCc5ccc6c(n5)NC(=O)CO6)(CC3)CO4)c2n1 | 64 (≈ 102 µM) | 8 (≈ 12.7 µM) | 1 (≈ 1.59 µM) | 64 (≈ 102 µM) | 64 (≈ 102 µM) | 32 (≈ 50.8 µM) | Active
O=C1COc2ccc(CNC34CCC(CCc5c(F)cnc6ccc(OCCCCCO)nc56)(CC3)OC4)nc2N1 [listing 2 of 2 here] | – | – | – | – | – | – | Active
CCOC(=O)CCCOc1ccc2ncc(F)c(CCC34CCC(NCc5ccc6c(n5)NC(=O)CO6)(CC3)CO4)c2n1 | 2 (≈ 3.37 µM) | 0.125 (≈ 0.211 µM) | 0.031 (≈ 0.0522 µM) | 8 (≈ 13.5 µM) | 8 (≈ 13.5 µM) | 2 (≈ 3.37 µM) | Active
